Results from ChEMBL document CHEMBL5649169 (ChemMedChem, 2018).

Experiments:
[1] = target: Alkyldihydroxyacetonephosphate synthase, peroxisomal (Homo sapiens) (UniProt O00116); further: assay method not described here
[2] = target: ATP synthase F(0) complex subunit g, mitochondrial (Homo sapiens) (UniProt O75964); further: assay method not described here
Ephrin type-A receptor 8 = Ephrin type-A receptor 8 (Homo sapiens, UniProt P29322); assay: Inhibition of Nano Luc-fused full length C-terminal EPHA8 (unknown origin) expressed in HEK293T cells using NanoGlo as substrate incubated for 2 hrs in presence of tracer by NanoBRET assay; format: cell-based
[3] = target: Leucine-rich PPR motif-containing protein, mitochondrial (Homo sapiens) (UniProt P42704); further: assay method not described here
[4] = target: Proliferation marker protein Ki-67 (Homo sapiens) (UniProt P46013); further: assay method not described here
[5] = target: Dolichyl-diphosphooligosaccharide--protein glycosyltransferase subunit 2 (Homo sapiens) (UniProt P04844); further: assay method not described here
[6] = target: Heterogeneous nuclear ribonucleoproteins C1/C2 (Homo sapiens) (UniProt P07910); further: assay method not described here
[7] = target: UV excision repair protein RAD23 homolog B (Homo sapiens) (UniProt P54727); further: assay method not described here
Homo sapiens [8] = species: Homo sapiens; further: assay method not described here
Ephrin type-B receptor 2 = Ephrin type-B receptor 2 (Homo sapiens, UniProt P29323); assay: Inhibition of Nano Luc-fused full length C-terminal EPHB2 (unknown origin) expressed in HEK293T cells using NanoGlo as substrate incubated for 2 hrs in presence of tracer by NanoBRET assay; format: cell-based
[9] = target: Heme oxygenase 2 (Homo sapiens) (UniProt P30519); further: assay method not described here
[10] = target: Trifunctional enzyme subunit beta, mitochondrial (Homo sapiens) (UniProt P55084); further: assay method not described here
[11] = target: Fanconi anemia group I protein (Homo sapiens) (UniProt Q9NVI1); further: assay method not described here
[12] = target: CYFIP-related Rac1 interactor B (Homo sapiens) (UniProt Q9NUQ9); further: assay method not described here
[13] = target: Propionyl-CoA carboxylase alpha chain, mitochondrial (Homo sapiens) (UniProt P05165); further: assay method not described here
Homo sapiens [14] = species: Homo sapiens; remark: listed apart in the source; further: assay method not described here
[15] = target: DNA replication licensing factor MCM2 (Homo sapiens) (UniProt P49736); further: assay method not described here
[16] = target: Fatty acid CoA ligase Acsl3 (Homo sapiens) (UniProt O95573); further: assay method not described here
[17] = target: Chloride intracellular channel protein 1 (Homo sapiens) (UniProt O00299); further: assay method not described here
[18] = target: Small ribosomal subunit protein uS3 (Homo sapiens) (UniProt P23396); further: assay method not described here
[19] = target: WD repeat-containing protein 5 (Homo sapiens) (UniProt P61964); further: assay method not described here
[20] = target: DNA topoisomerase 2-alpha (Homo sapiens) (UniProt P11388); further: assay method not described here
[21] = target: Peptidyl-prolyl cis-trans isomerase FKBP1A (Homo sapiens) (UniProt P62942); further: assay method not described here
[22] = target: Small ribosomal subunit protein mS27 (Homo sapiens) (UniProt Q92552); further: assay method not described here
[23] = target: Dihydrolipoyl dehydrogenase, mitochondrial (Homo sapiens) (UniProt P09622); further: assay method not described here
[24] = target: Leucine-rich repeat flightless-interacting protein 1 (Homo sapiens) (UniProt Q32MZ4); further: assay method not described here
[25] = target: Stress-70 protein, mitochondrial (Homo sapiens) (UniProt P38646); further: assay method not described here
[26] = target: Translocon-associated protein subunit alpha (Homo sapiens) (UniProt P43307); further: assay method not described here
[27] = target: Tropomyosin alpha-3 chain (Homo sapiens) (UniProt P06753); further: assay method not described here
[28] = target: Serine/threonine-protein kinase 3 (Homo sapiens) (UniProt Q13188); further: assay method not described here
[29] = target: T-complex protein 1 subunit delta (Homo sapiens) (UniProt P50991); further: assay method not described here
[30] = target: Acidic leucine-rich nuclear phosphoprotein 32 family member B (Homo sapiens) (UniProt Q92688); further: assay method not described here
[31] = target: Cytochrome c oxidase subunit 6C (Homo sapiens) (UniProt P09669); further: assay method not described here
[32] = target: Syndecan-1 (Homo sapiens) (UniProt P18827); further: assay method not described here
[33] = target: Succinate dehydrogenase [ubiquinone] flavoprotein subunit, mitochondrial (Homo sapiens) (UniProt P31040); further: assay method not described here
[34] = target: Apoptosis-inducing factor 1, mitochondrial (Homo sapiens) (UniProt O95831); further: assay method not described here
[35] = target: Dolichyl pyrophosphate Glc1Man9GlcNAc2 alpha-1,3-glucosyltransferase (Homo sapiens) (UniProt Q9BVK2); further: assay method not described here
[36] = target: Tyrosine-protein kinase CSK (Homo sapiens) (UniProt P41240); further: assay method not described here
[37] = target: Large ribosomal subunit protein eL14 (Homo sapiens) (UniProt P50914); further: assay method not described here
[38] = target: Endoplasmic reticulum aminopeptidase 1 (Homo sapiens) (UniProt Q9NZ08); further: assay method not described here
[39] = target: cAMP-dependent protein kinase catalytic subunit alpha (Homo sapiens) (UniProt P17612); further: assay method not described here
[40] = target: Pre-mRNA-splicing factor SPF27 (Homo sapiens) (UniProt O75934); further: assay method not described here
[41] = target: 5-azacytidine-induced protein 2 (Homo sapiens) (UniProt Q9H6S1); further: assay method not described here
[42] = target: Trifunctional enzyme subunit alpha, mitochondrial (Homo sapiens) (UniProt P40939); further: assay method not described here
Homo sapiens [43] = species: Homo sapiens; remark: listed apart in the source; further: assay method not described here

Chain of UV excision repair protein RAD23 homolog B (Homo sapiens) (P54727 whole entry): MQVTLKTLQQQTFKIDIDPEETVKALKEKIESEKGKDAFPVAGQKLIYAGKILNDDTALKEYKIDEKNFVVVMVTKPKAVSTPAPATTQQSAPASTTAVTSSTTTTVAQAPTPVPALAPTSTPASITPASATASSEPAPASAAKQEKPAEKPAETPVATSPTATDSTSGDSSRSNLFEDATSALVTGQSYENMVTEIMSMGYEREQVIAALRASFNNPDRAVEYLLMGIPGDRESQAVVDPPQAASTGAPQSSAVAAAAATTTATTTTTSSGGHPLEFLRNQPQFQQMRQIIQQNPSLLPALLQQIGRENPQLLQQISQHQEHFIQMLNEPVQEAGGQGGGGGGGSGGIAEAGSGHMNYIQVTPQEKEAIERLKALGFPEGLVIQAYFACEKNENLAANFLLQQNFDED
Chain of Apoptosis-inducing factor 1, mitochondrial (Homo sapiens) (O95831 whole entry): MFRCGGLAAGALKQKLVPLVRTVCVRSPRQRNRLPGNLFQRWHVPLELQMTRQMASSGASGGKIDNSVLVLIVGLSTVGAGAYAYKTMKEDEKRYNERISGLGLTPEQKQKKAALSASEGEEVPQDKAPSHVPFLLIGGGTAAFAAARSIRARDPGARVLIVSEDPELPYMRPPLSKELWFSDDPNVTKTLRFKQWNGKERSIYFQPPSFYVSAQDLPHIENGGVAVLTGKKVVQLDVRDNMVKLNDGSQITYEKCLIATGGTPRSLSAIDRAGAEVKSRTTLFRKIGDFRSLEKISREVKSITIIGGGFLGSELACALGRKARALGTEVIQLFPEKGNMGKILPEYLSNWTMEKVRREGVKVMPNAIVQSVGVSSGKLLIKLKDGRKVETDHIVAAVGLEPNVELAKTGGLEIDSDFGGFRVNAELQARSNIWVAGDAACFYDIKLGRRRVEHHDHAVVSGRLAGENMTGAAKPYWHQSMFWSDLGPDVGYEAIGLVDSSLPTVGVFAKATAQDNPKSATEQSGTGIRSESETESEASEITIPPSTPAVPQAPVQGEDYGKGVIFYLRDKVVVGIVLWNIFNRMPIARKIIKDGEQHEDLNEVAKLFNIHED
Chain of Proliferation marker protein Ki-67 (Homo sapiens) (P46013 whole entry): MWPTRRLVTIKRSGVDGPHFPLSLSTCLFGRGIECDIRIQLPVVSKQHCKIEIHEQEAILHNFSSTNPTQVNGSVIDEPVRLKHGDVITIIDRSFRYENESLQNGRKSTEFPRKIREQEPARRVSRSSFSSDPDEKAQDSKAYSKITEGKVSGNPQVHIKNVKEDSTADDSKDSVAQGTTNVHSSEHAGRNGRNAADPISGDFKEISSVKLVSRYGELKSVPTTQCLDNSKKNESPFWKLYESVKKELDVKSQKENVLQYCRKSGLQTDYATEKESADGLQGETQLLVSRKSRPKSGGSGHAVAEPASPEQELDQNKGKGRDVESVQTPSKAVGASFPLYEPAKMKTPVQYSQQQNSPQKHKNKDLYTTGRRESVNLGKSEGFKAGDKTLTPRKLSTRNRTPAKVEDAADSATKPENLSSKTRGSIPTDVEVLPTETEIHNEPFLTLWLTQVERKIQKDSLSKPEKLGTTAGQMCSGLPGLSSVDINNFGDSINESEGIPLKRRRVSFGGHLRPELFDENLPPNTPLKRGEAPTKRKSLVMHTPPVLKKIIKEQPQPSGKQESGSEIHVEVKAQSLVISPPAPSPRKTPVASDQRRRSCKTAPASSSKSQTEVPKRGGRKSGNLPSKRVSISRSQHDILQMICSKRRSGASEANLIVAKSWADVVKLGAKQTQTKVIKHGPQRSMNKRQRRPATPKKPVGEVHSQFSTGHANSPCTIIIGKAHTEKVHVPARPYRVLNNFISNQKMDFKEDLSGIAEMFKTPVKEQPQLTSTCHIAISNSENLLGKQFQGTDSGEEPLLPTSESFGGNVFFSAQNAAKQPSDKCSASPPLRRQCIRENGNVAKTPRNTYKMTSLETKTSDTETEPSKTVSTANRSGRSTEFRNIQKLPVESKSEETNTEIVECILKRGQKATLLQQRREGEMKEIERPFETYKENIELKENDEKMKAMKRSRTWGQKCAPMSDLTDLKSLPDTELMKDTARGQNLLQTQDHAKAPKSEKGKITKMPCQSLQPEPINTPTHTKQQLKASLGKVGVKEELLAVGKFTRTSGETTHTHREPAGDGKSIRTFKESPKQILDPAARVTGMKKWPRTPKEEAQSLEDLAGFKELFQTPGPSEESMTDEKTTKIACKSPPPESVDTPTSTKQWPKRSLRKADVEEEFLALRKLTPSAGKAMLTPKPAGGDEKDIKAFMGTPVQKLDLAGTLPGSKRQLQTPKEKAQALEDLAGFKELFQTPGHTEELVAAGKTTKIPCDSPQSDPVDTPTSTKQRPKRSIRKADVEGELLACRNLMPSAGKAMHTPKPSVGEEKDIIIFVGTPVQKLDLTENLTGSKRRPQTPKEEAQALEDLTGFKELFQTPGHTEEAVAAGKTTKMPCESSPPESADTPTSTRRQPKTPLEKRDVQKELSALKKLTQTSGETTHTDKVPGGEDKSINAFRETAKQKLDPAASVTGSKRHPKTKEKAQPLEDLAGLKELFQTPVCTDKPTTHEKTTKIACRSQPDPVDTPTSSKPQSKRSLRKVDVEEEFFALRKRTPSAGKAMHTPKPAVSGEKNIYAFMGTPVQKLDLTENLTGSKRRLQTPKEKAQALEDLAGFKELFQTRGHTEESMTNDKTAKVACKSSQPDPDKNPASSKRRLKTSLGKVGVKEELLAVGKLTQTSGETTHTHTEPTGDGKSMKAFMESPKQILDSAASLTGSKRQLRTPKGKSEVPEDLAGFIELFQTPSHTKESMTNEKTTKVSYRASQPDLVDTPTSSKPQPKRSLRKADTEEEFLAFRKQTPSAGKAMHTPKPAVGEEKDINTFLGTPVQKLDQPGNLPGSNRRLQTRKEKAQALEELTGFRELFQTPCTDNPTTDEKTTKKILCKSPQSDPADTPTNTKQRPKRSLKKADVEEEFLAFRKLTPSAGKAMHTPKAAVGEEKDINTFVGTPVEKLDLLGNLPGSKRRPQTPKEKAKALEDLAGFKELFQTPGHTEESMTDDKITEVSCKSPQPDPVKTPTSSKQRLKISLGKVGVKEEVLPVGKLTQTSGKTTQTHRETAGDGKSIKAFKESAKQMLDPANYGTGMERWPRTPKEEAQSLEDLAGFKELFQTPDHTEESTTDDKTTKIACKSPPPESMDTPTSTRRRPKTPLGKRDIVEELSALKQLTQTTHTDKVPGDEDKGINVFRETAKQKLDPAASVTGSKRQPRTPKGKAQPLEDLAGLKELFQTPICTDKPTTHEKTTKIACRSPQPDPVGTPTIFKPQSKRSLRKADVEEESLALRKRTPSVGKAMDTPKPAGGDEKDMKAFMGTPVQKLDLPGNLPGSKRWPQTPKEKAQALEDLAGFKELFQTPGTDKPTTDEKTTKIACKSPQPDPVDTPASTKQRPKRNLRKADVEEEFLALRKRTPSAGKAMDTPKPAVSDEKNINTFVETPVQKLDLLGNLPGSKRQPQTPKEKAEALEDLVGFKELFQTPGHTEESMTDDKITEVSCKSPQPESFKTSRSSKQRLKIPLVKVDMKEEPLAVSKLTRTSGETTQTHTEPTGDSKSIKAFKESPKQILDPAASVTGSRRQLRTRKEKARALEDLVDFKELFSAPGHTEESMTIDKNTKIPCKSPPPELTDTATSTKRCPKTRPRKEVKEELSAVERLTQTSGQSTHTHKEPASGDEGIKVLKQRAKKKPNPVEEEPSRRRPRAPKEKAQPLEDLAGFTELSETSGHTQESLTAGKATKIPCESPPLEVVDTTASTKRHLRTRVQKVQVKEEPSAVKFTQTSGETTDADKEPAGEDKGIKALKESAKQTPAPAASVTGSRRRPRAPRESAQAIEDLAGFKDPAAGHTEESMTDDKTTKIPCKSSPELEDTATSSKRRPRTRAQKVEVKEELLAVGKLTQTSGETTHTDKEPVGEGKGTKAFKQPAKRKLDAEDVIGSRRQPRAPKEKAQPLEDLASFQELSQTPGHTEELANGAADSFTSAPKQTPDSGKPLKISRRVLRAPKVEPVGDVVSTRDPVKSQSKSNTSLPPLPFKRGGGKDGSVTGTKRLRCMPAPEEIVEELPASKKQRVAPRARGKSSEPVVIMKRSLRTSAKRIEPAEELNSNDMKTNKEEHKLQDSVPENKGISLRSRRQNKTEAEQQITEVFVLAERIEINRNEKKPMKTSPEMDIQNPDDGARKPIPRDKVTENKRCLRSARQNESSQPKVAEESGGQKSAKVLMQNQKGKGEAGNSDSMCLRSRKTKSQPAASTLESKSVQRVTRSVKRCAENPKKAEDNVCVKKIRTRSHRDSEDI
Chain of T-complex protein 1 subunit delta (Homo sapiens) (P50991 whole entry, one chain of several): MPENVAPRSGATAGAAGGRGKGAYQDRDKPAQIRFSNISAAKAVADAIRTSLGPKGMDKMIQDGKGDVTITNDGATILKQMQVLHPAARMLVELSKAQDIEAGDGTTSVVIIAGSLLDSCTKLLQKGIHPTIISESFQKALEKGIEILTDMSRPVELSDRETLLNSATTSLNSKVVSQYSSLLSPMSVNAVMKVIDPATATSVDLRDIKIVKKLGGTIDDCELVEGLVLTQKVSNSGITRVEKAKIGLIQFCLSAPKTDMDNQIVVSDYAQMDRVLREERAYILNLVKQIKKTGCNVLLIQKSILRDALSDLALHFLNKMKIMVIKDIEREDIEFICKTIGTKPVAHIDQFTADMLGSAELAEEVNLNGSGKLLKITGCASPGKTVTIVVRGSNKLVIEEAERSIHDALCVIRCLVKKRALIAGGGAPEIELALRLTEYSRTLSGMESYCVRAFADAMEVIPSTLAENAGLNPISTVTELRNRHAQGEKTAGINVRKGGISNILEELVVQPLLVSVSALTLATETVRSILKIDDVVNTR
Chain of Peptidyl-prolyl cis-trans isomerase FKBP1A (Homo sapiens) (P62942 whole entry): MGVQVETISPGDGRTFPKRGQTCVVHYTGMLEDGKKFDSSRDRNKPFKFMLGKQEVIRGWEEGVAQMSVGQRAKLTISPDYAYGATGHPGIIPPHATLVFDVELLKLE
Chain of ATP synthase F(0) complex subunit g, mitochondrial (Homo sapiens) (O75964 whole entry, the tested form may be a part, one chain of several): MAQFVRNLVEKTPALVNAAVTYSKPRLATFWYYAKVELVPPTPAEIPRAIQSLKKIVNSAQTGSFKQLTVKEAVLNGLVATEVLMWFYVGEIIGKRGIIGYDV

`Cc1ccc(C(=O)Nc2cccc(C(F)(F)F)c2)cc1Nc1nc(-c2cccnc2)nc2c1cnn2C` was tested, and the ED50 [1] was 0.0016 µM, the ED50 [2] was 2.64 µM and the IC50 (Ephrin type-A receptor 8) was 0.0012 µM. The ED50 [3] was 0.112 µM, the ED50 [4] was 4.64 µM and the ED50 [5] was 0.874 µM. The ED50 [6] was 0.127 µM, the ED50 [7] was 0.00259 µM and the ED50 (Homo sapiens [8]) was 2.84 µM. The IC50 (Ephrin type-B receptor 2) was 0.0025 µM, the ED50 [9] was 4.08 µM and the ED50 [10] was 0.655 µM. It also gave an ED50 [11] of 13 µM, an ED50 [12] of 4.85 µM and an ED50 [13] of 0.596 µM. For the same compound, the ED50 (Homo sapiens [14]) was 2.74 µM, the ED50 [15] was 3.39 µM and the ED50 [16] was 5.73 µM. It also gave an ED50 [17] of 14.3 µM, an ED50 [18] of 0.00386 µM and an ED50 [19] of 0.0527 µM. It also gave an ED50 [20] of 0.0563 µM, an ED50 [21] of 94 µM and an ED50 [22] of 0.099 µM. The ED50 [23] was 11.1 µM, the ED50 [24] was 3.51 µM and the ED50 [25] was 0.0314 µM. The ED50 [26] was 12.2 µM, the ED50 [27] was 5.57 µM and the ED50 [28] was 14.2 µM. It also gave an ED50 [29] of 1.63 µM, an ED50 [30] of 5.15 µM and an ED50 [31] of 16.2 µM. For the same compound, the ED50 [32] was 1.77 µM, the ED50 [33] was 0.12 µM and the ED50 [34] was 0.00539 µM. For the same compound, the ED50 [35] was 0.0377 µM, the ED50 [36] was 4.52 µM and the ED50 [37] was 0.187 µM. For the same compound, the ED50 [38] was 6.22 µM, the ED50 [39] was 12900 µM and the ED50 [40] was 0.00189 µM. The ED50 [41] was 0.0383 µM, the ED50 [42] was 0.877 µM and the ED50 (Homo sapiens [43]) was 17.4 µM.

Compound `Cc1ccc(C(=O)Nc2cccc(C(F)(F)F)c2)cc1Nc1nc(-c2cccnc2)nc2nn(C)cc12` has an ED50 [1] of 0.486 µM, an ED50 [2] of 0.214 µM and an IC50 (Ephrin type-A receptor 8) of 0.21 µM. It also gave an ED50 [3] of 3.28 µM, an ED50 [4] of 0.0399 µM and an ED50 [5] of 0.0603 µM. For the same compound, the ED50 [6] was 7.54 µM, the ED50 [7] was 14.9 µM and the ED50 (Homo sapiens [8]) was 0.0194 µM. It also gave an IC50 (Ephrin type-B receptor 2) of 0.63 µM, an ED50 [9] of 0.02 µM and an ED50 [10] of 0.00935 µM. The ED50 [11] was 2.2 µM, the ED50 [12] was 43 µM and the ED50 [13] was 7.07 µM. The ED50 (Homo sapiens [14]) was 0.0747 µM, the ED50 [15] was 0.0024 µM and the ED50 [16] was 37.2 µM. For the same compound, the ED50 [17] was 20.9 µM, the ED50 [18] was 0.0406 µM and the ED50 [19] was 0.0363 µM. It also gave an ED50 [20] of 0.0585 µM, an ED50 [21] of 0.00568 µM and an ED50 [22] of 0.835 µM. It also gave an ED50 [23] of 10.8 µM, an ED50 [24] of 0.228 µM and an ED50 [25] of 0.0308 µM. For the same compound, the ED50 [26] was 16 µM, the ED50 [27] was 18.9 µM and the ED50 [28] was 9.32 µM. For the same compound, the ED50 [29] was 26.8 µM, the ED50 [30] was 10.1 µM and the ED50 [31] was 0.012 µM. It also gave an ED50 [32] of 1.07 µM, an ED50 [33] of 2.36 µM and an ED50 [34] of 0.182 µM. It also gave an ED50 [35] of 72.9 µM, an ED50 [36] of 1.86 µM and an ED50 [37] of 7.31 µM. It also gave an ED50 [38] of 8.49 µM, an ED50 [39] of 0.0643 µM and an ED50 [40] of 0.954 µM. The ED50 [41] was 6.47 µM, the ED50 [42] was 0.0595 µM and the ED50 (Homo sapiens [43]) was 0.0301 µM.
